Patent US20130102631A1, “NOVEL MICROBIOCIDAL DIOXIME ETHER DERIVATIVES” (SYNGENTA CROP PROTECTION LLC, priority 2010, published 2013)

How the values were obtained:
[1] = system: Mycosphaerella arachidis (Cercospora arachidicola); assay: Mycosphaerella arachidis (Cercospora arachidicola) / liquid culture (early leaf spot); assay type: cell-based; conditions: at ≦200 ppm, liquid culture PDB, inhibition of growth photometrically 4-5 days after application, read-out: control of Mycosphaerella arachidis
Experimental: Mycosphaerella arachidis (Cercospora arachidicola)/Liquid Culture (Early Leaf Spot): Conidia of the fungus from cryogenic storage were directly mixed into nutrient broth (PDB potato dextrose broth). After placing a DMSO solution of test compound into a 96-well microtiter plate, the nutrient broth containing the fungal spores was added. The test plates are incubated at 24° C. and the inhibition of growth was determined photometrically 4-5 days after application. […]-2.509; 5.561; 2.561; P.57; 2.513; 2.559; 2.558; 2.557; 2.556; 2.555; 2.374; 2.553; 2.552; 2.551 (fraction B); 2.551 (fraction A); 2.544; 2.541; 2.539; 2.537; 2.536; 2.533; 2.532; 2.531; 2.530; 2.528; 2.526; 2.525 (fraction B); 2.525 (fraction A); 2.524; 2.520; 2.519; 2.510; 2.518; 2.517; 2.516; 2.514; […].002; 2.512; 2.511; 2.514

[2] = system: Puccinia recondita f. sp. tritici; assay: Puccinia recondita f. sp. tritici / wheat / leaf disc preventative (brown rust); assay type: in vivo; conditions: foliar, wheat leaf segments cv Kanzler, inoculated 1 day after application, assessed 7-9 days after application
Experimental: Puccinia recondita f. sp. Tritici/Wheat/Leaf Disc Preventative (Brown Rust): Wheat leaf segments cultivated variety (cv) Kanzler were placed on agar in 24-well plates and sprayed with formulated test compound diluted in water at an application rate of 200 ppm. The leaf disks were inoculated with a spore suspension of the fungus 1 day after application. The inoculated leaf segments were incubated at 19° C. and 75% relative humidity under a light regime of 12/12 h (light/dark) in a climate cabinet and the activity of a compound was assessed as percent disease control compared to untreated when an appropriate level of disease damage appears in untreated check leaf segments (7-9 days after application). […]-2.508; 5.561; 2.561; 2.513; 2.559; 2.556; 2.555; 2.374; 2.544; 2.537; 2.530; 2.525 (fraction B); 2.519; 2.516; 2.514; E/E-5.167; E/E-3.002; 2.512; E/E-2.507

Gaeumannomyces graminis = Gaeumannomyces graminis / liquid culture (take-all of cereals); assay type: cell-based; conditions: at ≦200 ppm, liquid culture PDB, inhibition of growth photometrically 4-5 days after application, read-out: control of Gaeumannomyces graminis
Experimental: Gaeumannomyces graminis/Liquid Culture (Take-All of Cereals): Mycelial fragments of the fungus from cryogenic storage were directly mixed into nutrient broth (PDB potato dextrose broth). After placing a DMSO solution of test compound into a 96-well microtiter plate, the nutrient broth containing the fungal spores is added. The test plates were incubated at 24° C. and the inhibition of growth was determined photometrically 4-5 days after application. […]-2.509; 5.561; 2.561; P.57; 2.513; 2.559; 2.558; 2.557; 2.556; 2.555; 2.374; 2.553; 2.552; 2.551 (fraction B); 2.551 (fraction A); 2.539; 2.533; 2.528; 2.526; 2.525 (fraction B); 2.525 (fraction A); 2.524; 2.523; 2.521; 2.520; 2.519; 2.510; 2.518; 2.516; 2.514; E/E-5.167; E/E-3.002; 2.512; E/E-2.508

[3] = system: Mycosphaerella graminicola (Septoria tritici); assay: Mycosphaerella graminicola (Septoria tritici) / liquid culture (Septoria blotch); assay type: cell-based; conditions: Zymoseptoria tritici; at ≦200 ppm, liquid culture PDB, inhibition of growth photometrically 4-5 days after application; read-out: control of Mycosphaerella graminicola
[4] = system: Monographella nivalis (Microdochium nivale); assay: Monographella nivalis (Microdochium nivale) / liquid culture (foot rot cereals); assay type: cell-based; conditions: at ≦200 ppm, liquid culture PDB, inhibition of growth photometrically 4-5 days after application, read-out: control of Monographella nivalis
Experimental: Monographella nivalis (Microdochium nivale)/Liquid Culture (Foot Rot Cereals): Conidia of the fungus from cryogenic storage were directly mixed into nutrient broth (PDB potato dextrose broth). After placing a DMSO solution of test compound into a 96-well microtiter plate, the nutrient broth containing the fungal spores was added. The test plates were incubated at 24° C. and the inhibition of growth was determined photometrically 4-5 days after application. […].57; 2.513; 2.559; 2.558; 2.556; 2.555; 2.374; 2.553; 2.551 (fraction B); 2.551 (fraction A); 2.548; 2.544; 2.542; 2.541; 2.539; 2.536; 2.535; 2.533; 2.530; 2.528; 2.526; 2.525 (fraction B); 2.525 (fraction A); 2.524; 2.519; 2.518; 2.516; 2.514; E/E-5.167; 2.512; 2.514

Glomerella lagenarium = Glomerella lagenarium (Colletotrichum lagenarium) / liquid culture (anthracnose); assay type: cell-based; conditions: Colletotrichum orbiculare; at ≦200 ppm, liquid culture PDB, inhibition of growth photometrically 3-4 days after application; read-out: control of Glomerella lagenarium
Experimental: Glomerella lagenarium (Colletotfichum lagenarium)/Liquid Culture (Anthracnose): Conidia of the fungus from cryogenic storage were directly mixed into nutrient broth (PDB potato dextrose broth). After placing a DMSO solution of test compound into a 96-well microtiter, the nutrient broth containing the fungal spores was added. The test plates were incubated at 24° C. and the inhibition of growth is measured photometrically 3-4 days after application. […]-2.509; 5.561; 2.561; E/E-2.208; P.57; 2.513; 2.559; 2.556; 2.555; 2.374; 2.552; 2.548; 2.544; 2.541; 2.540; 2.539; 2.537; 2.536; 2.533; 2.531; 2.530; 2.528; 2.526; 2.519; 2.510; 2.516; 2.514; E/E-5.167; E/E-3.002; 2.512; 2.514; Z/E-2.474

[5] = system: Blumeria graminis f. sp. tritici (Erysiphe graminis f. sp. tritici); assay: Blumeria graminis f. sp. tritici / wheat / leaf disc preventative (powdery mildew on wheat); assay type: in vivo; conditions: foliar, wheat leaf segments cv. Kanzler, inoculated 1 day after application, assessed 6-8 days after application
Experimental: Blumeria graminis f. sp. tritici (Erysiphe graminis f. sp. tritici)/Wheat/Leaf Disc Preventative (Powdery Mildew on Wheat):
Wheat leaf segments cv. Kanzler were placed on agar in a 24-well plate and sprayed with the formulated test compound diluted in water at an application rate of 200 ppm. The leaf disks were inoculated by shaking powdery mildew infected plants above the test plates 1 day after application. The inoculated leaf disks were incubated at 20° C. and 60% relative humidity under a light regime of 24 h darkness followed by 12 h/12 h (dark/light) in a climate chamber and the activity of a compound was assessed as percent disease control compared to untreated when an appropriate level of disease damage appears on untreated check leaf segments (6-8 days after application). The following compounds gave at least 80% control of Blumeria graminis: E/E-2.168, E/E-2.474, E/E-2.002; 5.561; 2.561; E/E-2.208; 2.513; 2.559; 2.557; 2.556; 2.555; 2.374; 2.552; 2.537; 2.533; 2.530; 2.528; 2.526; 2.519; 2.510; 2.516; 2.514; E/E-5.167; E/E-3.002; 2.512; 2.511

[6] = system: Phaeosphaeria nodorum (Septoria nodorum); assay: Phaeosphaeria nodorum (Septoria nodorum) / wheat / leaf disc preventative (glume blotch); assay type: in vivo; conditions: Parastagonospora nodorum, foliar, wheat leaf segments cv Kanzler, inoculated 2 days after application, assessed 5-7 days after application
Experimental: Phaeosphaeria nodorum (Septoria nodorum)/Wheat/Leaf Disc Preventative (Glume Blotch): Wheat leaf segments cv Kanzler were placed on agar in a 24-well plate and sprayed with formulated test compound diluted in water at an application rate of 200 ppm. The leaf disks are inoculated with a spore suspension of the fungus 2 days after application. The inoculated test leaf disks are incubated at 20° C. and 75% relative humidity under a light regime of 12/12 h (light/dark) in a climate cabinet and the activity of a compound is assessed as percent disease control compared to untreated when an appropriate level of disease damage appears in untreated check leaf disks (5-7 days after application). […]-2.508; 5.561; 2.561; E/E-2.208; P.57; 2.513; 2.559; 2.558; 2.557; 2.556; 2.555; 2.374; 2.544; 2.541; 2.539; 2.537; 2.536; 2.535; 2.533; 2.530; 2.526; 2.519; 2.510; 2.516; 2.514; E/E-5.167; E/E-3.002; 2.512

Pyrenophora teres = Pyrenophora teres / barley / leaf disc preventative (net blotch); assay type: in vivo; conditions: foliar, barley leaf segments cv Hasso, inoculated two days after application, assessed 5-7 days after application
Experimental: Pyrenophora teres/Barley/Leaf Disc Preventative (Net Blotch): Barley leaf segments cv Hasso are placed on agar in a 24-well plate and sprayed with formulated test compound diluted in water at an application rate of 200 ppm. The leaf segments are inoculated with a spore suspension of the fungus two days after application of the test solution. The inoculated leaf segments are incubated at 20° C. and 65% relative humidity under a light regime of 12/12 h (light/dark) in a climate cabinet and the activity of a compound is assessed as disease control compared to untreated when an appropriate level of disease damage appears in untreated check leaf segments (5-7 days after application). […]-2.507; 5.561; 2.561; E/E-2.208; P.57; 2.513; 2.559; 2.558; 2.556; 2.555; 2.374; 2.552; 2.544; 2.537; 2.533; 2.530; 2.528; 2.519; 2.510; 2.516; 2.514; E/E-5.167; E/E-3.002; 2.512

[7] = system: Puccinia recondita f. sp. tritici; assay: Puccinia recondita f. sp. tritici / wheat / leaf disc curative (brown rust); assay type: in vivo; conditions: foliar, wheat leaf segments cv Kanzler, 200 ppm applied 1 day after inoculation, assessed 6-8 days after application
Experimental: Puccinia recondita f. sp. tritici/Wheat/Leaf Disc Curative (Brown Rust): Wheat leaf segments cv Kanzler were placed on agar in 24-well plates. The leaf segments were inoculated with a spore suspension of the fungus. The plates were stored in darkness at 19° C. and 75% relative humidity. The formulated test compound diluted in water was applied at an application rate of 200 ppm 1 day after inoculation. […]-2.508; 5.561; 2.561; E/E-2.208; 2.513; 2.559; 2.556; 2.555; 2.374; 2.552; 2.537; 2.519; 2.516; 2.514; […].002; 2.512; E/E-2.507

CC/C(=N/OCC(C)(C)CO/N=C1\CCCc2ccc(C)nc21)c1ncc(Cl)cc1F (single isomer, unassigned) [2.525 (fraction B)]
≥ 80%: inhibition of growth at up to 200 µg/mL [1] | pest or weed control at 200 ppm [2] | inhibition of growth at up to 200 µg/mL (Gaeumannomyces graminis) | inhibition of growth at up to 200 µg/mL [3] | inhibition of growth at up to 200 µg/mL [4]

Cc1ccc2c(n1)/C(=N/OCC(C)(C)CO/N=C(\c1ccccc1)c1ccccn1)CCC2 [Compound 2.510]
≥ 80%: inhibition of growth at up to 200 µg/mL [1] | inhibition of growth at up to 200 µg/mL (Glomerella lagenarium) | inhibition of growth at up to 200 µg/mL (Gaeumannomyces graminis) | inhibition of growth at up to 200 µg/mL [3] | pest or weed control at 200 ppm [5] | pest or weed control at 200 ppm [6] | pest or weed control at 200 ppm (Pyrenophora teres)

Cc1ccc2c(n1)/C(=N/OCC(C)(C)CO/N=C/c1cccc(CO)n1)CCC2 [Compound 2.528]
≥ 80%: inhibition of growth at up to 200 µg/mL [1] | inhibition of growth at up to 200 µg/mL (Glomerella lagenarium) | inhibition of growth at up to 200 µg/mL (Gaeumannomyces graminis) | inhibition of growth at up to 200 µg/mL [3] | pest or weed control at 200 ppm [5] | pest or weed control at 200 ppm (Pyrenophora teres) | inhibition of growth at up to 200 µg/mL [4]

Cc1ccc2c(n1)/C(=N/OCC(C)(C)CO/N=C(\c1ccncc1)c1ccccn1)CCC2 [Compound 2.537]
≥ 80%: inhibition of growth at up to 200 µg/mL [1] | pest or weed control at 200 ppm [2] | inhibition of growth at up to 200 µg/mL (Glomerella lagenarium) | inhibition of growth at up to 200 µg/mL [3] | pest or weed control at 200 ppm [5] | pest or weed control at 200 ppm [7] | pest or weed control at 200 ppm [6] | pest or weed control at 200 ppm (Pyrenophora teres)

C/C(=N\OCC(C)(C)CO/N=C1\CCCc2ccc(C)nc21)c1cccc(-c2ccccc2Cl)n1 [Compound 2.544]
≥ 80%: inhibition of growth at up to 200 µg/mL [1] | pest or weed control at 200 ppm [2] | inhibition of growth at up to 200 µg/mL (Glomerella lagenarium) | inhibition of growth at up to 200 µg/mL [3] | pest or weed control at 200 ppm [6] | pest or weed control at 200 ppm (Pyrenophora teres) | inhibition of growth at up to 200 µg/mL [4]

Cc1ccc2c(n1)/C(=N/OCC(C)(C)CO/N=C/c1ncc(Cl)cc1F)CCC2 [Compound 2.552]
≥ 80%: inhibition of growth at up to 200 µg/mL [1] | inhibition of growth at up to 200 µg/mL (Glomerella lagenarium) | inhibition of growth at up to 200 µg/mL (Gaeumannomyces graminis) | inhibition of growth at up to 200 µg/mL [3] | pest or weed control at 200 ppm [5] | pest or weed control at 200 ppm [7] | pest or weed control at 200 ppm (Pyrenophora teres)

C/C(=N\OCC(C)(C)CO/N=C1\CCCc2c(C)cc(CF)nc21)c1cc(C)cc(C)n1 [E/E-2.208]
≥ 80%: inhibition of growth at up to 200 µg/mL (Glomerella lagenarium) | pest or weed control at 200 ppm [5] | pest or weed control at 200 ppm [7] | pest or weed control at 200 ppm [6] | pest or weed control at 200 ppm (Pyrenophora teres)

C/C(=N\OCC(C)(O)CO/N=C1\CCCc2ccc(C)nc21)c1cccc(C)n1 (stereo not drawn) [E/E-14.002]
≥ 80%: inhibition of growth at up to 200 µg/mL [1] | pest or weed control at 200 ppm [7]
